The values that follow come from patent publication US10464947B2 (Incyte Corporation, priority 2013, dated 2019).

Where two headings read alike, the source gives them in different places.

The subject of this test is KMS.12.BM cells. Nature of the test: KMS.12.BM Cell Viability Assay (Example B1). It is filed as cell-based, human. Particulars: 3 days, Cell Titer-GLO, read-out: KMS cellular IC50. The method, then:
KMS.12.BM cell line (human myeloma) was purchased from JCRB (Osaka, Japan) and maintained in RPMI with 10% FBS culture medium. To measure the cytotoxic activity of the compounds through ATP quantitation, the KMS.12.BM cells are plated in the RPMI culture medium at 5000 cells/well/per 100 μL into a 96-well polystyrene clear black tissue culture plate (Greiner-bio-one through VWR, NJ), in the presence or absence of a concentration range of test compounds. After 3 days, […] Cell Titer-GLO Luminescent (Promega, Madison, Wis.) cell culture agent is added to each well for 10 min. at room temperature to stabilize the luminescent signal. This determines the number of viable cells in culture based on quantitation of the ATP present, which signals the presence of metabolically active cells.

A word on the IC50: it is the point on the concentration scale where inhibition reaches its midpoint. Take `Cc1noc(C)c1-c1ccc2[nH]c(=O)n3c2c1OCC3c1ccccc1OCC(=O)N(C)C` (stereo not shown) [Example 51, 2-{2-[7-(3,5-Dimethylisoxazol-4-yl)-2-oxo-1,2,4,5-tetrahydroimidazo[1,5,4-de][1,4]benzoxazin-4-yl]phenoxy}-N,N-dimethylacetamide]: the IC50 (Homo sapiens, 72 h) was under 1000 nM.
Regarding `Cc1noc(C)c1-c1ccc2[nH]c(=O)n3c2c1OCC3C1CCCO1` (single isomer, unassigned) [Example 18B, 7-(3,5-Dimethylisoxazol-4-yl)-4-(tetrahydrofuran-2-yl)-4,5-dihydroimidazo[1,5,4-de][1,4]benzoxazin-2(1H)-one], the IC50 is under 1000 nM.
For the compound `Cc1noc(C)c1-c1ccc2nc(N3CCCN(C(=O)OC(C)(C)C)CC3)n3c2c1OC[C@@H]3c1ccccn1` [Example 197, tert-butyl 4-[(4S)-7-(3,5-dimethylisoxazol-4-yl)-4-pyridin-2-yl-4,5-dihydroimidazo[1,5,4-de][1,4]benzoxazin-2-yl]-1,4-diazepane-1-carboxylate], the IC50 (Homo sapiens, 72 h) was under 1000 nM.
For `Cc1noc(C)c1-c1ccc2nc(N3CC[C@@H](NC(=O)CC#N)C3)n3c2c1OC[C@@H]3c1ccccn1` [Example 211, 2-cyano-N-{(3R)-1-[(4S)-7-(3,5-dimethylisoxazol-4-yl)-4-pyridin-2-yl-4,5-dihydroimidazo[1,5,4-de][1,4]benzoxazin-2-yl]pyrrolidin-3-yl}acetamide], the 50% inhibitory concentration (IC50) (Homo sapiens, 72 h) was under 1000 nM.
Regarding `Cc1noc(C)c1-c1ccc2nc(-c3ccccc3)n3c2c1OCC3c1ccccc1` (stereo not shown) [Example 41, 7-(3,5-Dimethylisoxazol-4-yl)-2,4-diphenyl-4,5-dihydroimidazo[1,5,4-de][1,4]benzoxazine], the IC50 (Homo sapiens, 72 h) was under 1000 nM.
In the case of `CCNC(=O)COc1ccccc1C1COc2c(-c3c(C)noc3C)ccc3[nH]c(=O)n1c23` (stereo not shown) [Example 22, 2-{2-[7-(3,5-Dimethylisoxazol-4-yl)-2-oxo-1,2,4,5-tetrahydroimidazo[1,5,4-de][1,4]benzoxazin-4-yl]phenoxy}-N-ethylacetamide], the IC50 (Homo sapiens, 72 h) was under 1000 nM.
In the case of `Cc1noc(C)c1-c1ccc2nc(N3CC[C@@H](C(=O)NC(C)C)C3)n3c2c1OC[C@@H]3c1ccccn1` [Example 145, (3R)-1-[(4S)-7-(3,5-Dimethylisoxazol-4-yl)-4-pyridin-2-yl-4,5-dihydroimidazo[1,5,4-de][1,4]benzoxazin-2-yl]-N-isopropylpyrrolidine-3-carboxamide], under “Homo sapiens, 72 h”, the IC50 is under 1000 nM.
Take `Cc1noc(C)c1-c1cc(-c2ccc(O)nc2)c2[nH]c(=O)n3c2c1OC[C@@H]3c1ccccn1` [Example 259, (4S)-7-(3,5-dimethylisoxazol-4-yl)-9-(6-hydroxypyridin-3-yl)-4-pyridin-2-yl-4,5-dihydroimidazo[1,5,4-de][1,4]benzoxazin-2(1H)-one]: the IC50 (Homo sapiens, KMS-12-BM, 72 h) was 1000 to 10000 nM.
Regarding `Cc1noc(C)c1-c1ccc2nc(N3CC(NS(C)(=O)=O)C3)n3c2c1OC[C@@H]3c1ccccn1` [Example 237, N-{1-[(4S)-7-(3,5-dimethylisoxazol-4-yl)-4-pyridin-2-yl-4,5-dihydroimidazo[1,5,4-de][1,4]benzoxazin-2-yl]azetidin-3-yl}methanesulfonamide], where the note is “Homo sapiens, 72 h”, the IC50 is under 1000 nM.
Same read-out and setting: the result for `CC(=O)N[C@H]1CCN(c2nc3ccc(-c4c(C)noc4C)c4c3n2[C@@H](c2ccccn2)CO4)C1` [Example 201B, N-{(3S)-1-[(4S)-7-(3,5-dimethylisoxazol-4-yl)-4-pyridin-2-yl-4,5-dihydroimidazo[1,5,4-de][1,4]benzoxazin-2-yl]pyrrolidin-3-yl}acetamide] reads under 1000 nM.
In the case of `Cc1noc(C)c1-c1ccc2[nH]c(=O)n3c2c1CCC3c1ccccc1` (stereo not shown) [Example 120, 7-(3,5-Dimethylisoxazol-4-yl)-4-phenyl-5,6-dihydro-4H-imidazo[4,5,1-ij]quinolin-2(1H)-one], the IC50 (Homo sapiens, 72 h) is under 1000 nM.
The same measure, in the same setting: the figure for `Cc1noc(C)c1-c1ccc2nc(N3CCNC(=O)C3C)n3c2c1OC[C@@H]3c1ccccn1` (stereo partly drawn) [Example 195, 4-[(4S)-7-(3,5-dimethylisoxazol-4-yl)-4-pyridin-2-yl-4,5-dihydroimidazo[1,5,4-de][1,4]benzoxazin-2-yl]-3-methylpiperazin-2-one] is under 1000 nM.
With `Cc1noc(C)c1-c1ccc2[nH]c(=O)n3c2c1OCC3c1cccnc1C(=O)N(C)C` (stereo not shown) [Example 129, 3-[7-(3,5-Dimethylisoxazol-4-yl)-2-oxo-1,2,4,5-tetrahydroimidazo[1,5,4-de][1,4]benzoxazin-4-yl]-N,N-dimethylpyridine-2-carboxamide], the IC50 (Homo sapiens, KMS-12-BM, 72 h) is under 1000 nM.
As for `CC(=O)NC1CCN(c2nc3ccc(-c4c(C)noc4C)c4c3n2[C@@H](c2ccccn2)CO4)CC1` [Example 190, N-{1-[(4S)-7-(3,5-dimethylisoxazol-4-yl)-4-pyridin-2-yl-4,5-dihydroimidazo[1,5,4-de][1,4]benzoxazin-2-yl]piperidin-4-yl}acetamide], the IC50 (Homo sapiens, 72 h) is under 1000 nM.
Regarding `Cc1cc(-c2ccnn2C)c2c3c1[nH]c(=O)n3C(c1ccccc1)CO2` (stereo not shown) [Example 37, 9-Methyl-7-(1-methyl-1H-pyrazol-5-yl)-4-phenyl-4,5-dihydroimidazo[1,5,4-de][1,4]benzoxazin-2(1H)-one], the IC50 (Homo sapiens, KMS-12-BM, 72 h) was under 1000 nM.
`Cc1noc(C)c1-c1ccc2nc(N3CC[C@@H](C(=O)NC4CC4)C3)n3c2c1OC[C@@H]3c1ccccn1` [Example 251, (3R)-N-cyclopropyl-1-[(4S)-7-(3,5-dimethylisoxazol-4-yl)-4-pyridin-2-yl-4,5-dihydroimidazo[1,5,4-de][1,4]benzoxazin-2-yl]pyrrolidine-3-carboxamide]: where the note is “Homo sapiens, 72 h”, the IC50 is under 1000 nM.
As for `CCC(=O)N[C@@H]1CCN(c2nc3ccc(-c4c(C)noc4C)c4c3n2[C@@H](c2ccccn2)CO4)C1` [Example 208, N-{(3R)-1-[(4S)-7-(3,5-dimethylisoxazol-4-yl)-4-pyridin-2-yl-4,5-dihydroimidazo[1,5,4-de][1,4]benzoxazin-2-yl]pyrrolidin-3-yl}propanamide], the IC50 (Homo sapiens, 72 h) is under 1000 nM.
On the same count and under the same terms, the result for `Cc1noc(C)c1-c1ccc2nc([C@@H](O)CO)n3c2c1OC[C@@H]3c1ccccn1` [Example 89, (1R)-1-[(4S)-7-(3,5-Dimethylisoxazol-4-yl)-4-pyridin-2-yl-4,5-dihydroimidazo[1,5,4-de][1,4]benzoxazin-2-yl]ethane-1,2-diol] reads under 1000 nM; that for `Cc1noc(C)c1-c1ccc2nc(N3CCN(S(C)(=O)=O)CC3)n3c2c1OC[C@@H]3c1ccccn1` [Example 173, (4S)-7-(3,5-dimethylisoxazol-4-yl)-2-[4-(methylsulfonyl)piperazin-1-yl]-4-pyridin-2-yl-4,5-dihydroimidazo[1,5,4-de][1,4]benzoxazine], under 1000 nM; that for `Cc1noc(C)c1-c1ccc2nc(N3CC[C@@H](NC(=O)C(F)(F)F)C3)n3c2c1OC[C@@H]3c1ccccn1` [Example 203, N-{(3R)-1-[(4S)-7-(3,5-dimethylisoxazol-4-yl)-4-pyridin-2-yl-4,5-dihydroimidazo[1,5,4-de][1,4]benzoxazin-2-yl]pyrrolidin-3-yl}-2,2,2-trifluoroacetamide], under 1000 nM.
`Cc1noc(C)c1-c1ccc2nc(N3CCN(c4ccccc4)CC3)n3c2c1OC[C@@H]3c1ccccn1` [Example 178, (4S)-7-(3,5-dimethylisoxazol-4-yl)-2-(4-phenylpiperazin-1-yl)-4-pyridin-2-yl-4,5-dihydroimidazo[1,5,4-de][1,4]benzoxazine]: the IC50 (Homo sapiens, 72 h) is under 1000 nM.
As to `Cc1noc(C)c1-c1ccc2nc(N3CCC3)n3c2c1OC[C@@H]3c1ccccn1` [Example 164, (4S)-2-azetidin-1-yl-7-(3,5-dimethylisoxazol-4-yl)-4-pyridin-2-yl-4,5-dihydroimidazo[1,5,4-de][1,4]benzoxazine], the IC50 (Homo sapiens, 72 h) was under 1000 nM.
As to `Cc1noc(C)c1-c1ccc2nc(N3CCC(C(N)=O)CC3)n3c2c1OC[C@@H]3c1ccccn1` [Example 188, 1-[(4S)-7-(3,5-dimethylisoxazol-4-yl)-4-pyridin-2-yl-4,5-dihydroimidazo[1,5,4-de][1,4]benzoxazin-2-yl]piperidine-4-carboxamide], under “Homo sapiens, 72 h”, the IC50 is under 1000 nM.
Turning to `Cc1noc(C)c1-c1cc(-c2ccnc(O)c2)c2[nH]c(=O)n3c2c1OC[C@@H]3c1ccccn1` [Example 260, (4S)-7-(3,5-dimethylisoxazol-4-yl)-9-(2-hydroxypyridin-4-yl)-4-pyridin-2-yl-4,5-dihydroimidazo[1,5,4-de][1,4]benzoxazin-2(1H)-one], the IC50 (Homo sapiens, 72 h) is 1000 to 10000 nM.
For the compound `COCC(=O)NC1CCN(c2nc3ccc(-c4c(C)noc4C)c4c3n2[C@@H](c2ccccn2)CO4)CC1` [Example 241, N-{1-[(4S)-7-(3,5-dimethylisoxazol-4-yl)-4-pyridin-2-yl-4,5-dihydroimidazo[1,5,4-de][1,4]benzoxazin-2-yl]piperidin-4-yl}-2-methoxyacetamide], the IC50 (Homo sapiens, 72 h) is under 1000 nM.
Consider `Cc1noc(C)c1-c1ccc2nc(N3CCC(O)C3)n3c2c1OCC3c1ccccc1` (stereo not shown) [Example 55, 1-[7-(3,5-Dimethylisoxazol-4-yl)-4-phenyl-4,5-dihydroimidazo[1,5,4-de][1,4]benzoxazin-2-yl]pyrrolidin-3-ol], for which the half-inhibitory concentration (IC50) (Homo sapiens, 72 h) was under 1000 nM.
In the case of `Cc1noc(C)c1-c1ccc2nc(N(C)C)n3c2c1OCC3c1ccccn1` (stereo not shown) [Example 187, 7-(3,5-dimethylisoxazol-4-yl)-N,N-dimethyl-4-pyridin-2-yl-4,5-dihydroimidazo[1,5,4-de][1,4]benzoxazin-2-amine], where the note is “Homo sapiens, 72 h”, the 50% inhibitory concentration (IC50) was under 1000 nM.
As to `Cc1noc(C)c1-c1ccc2nc(N3CC[C@@H](NC(=O)OC(C)(C)C)C3)n3c2c1OC[C@@H]3c1ccccn1` [Example 182A, tert-butyl {(3R)-1-[(4S)-7-(3,5-dimethylisoxazol-4-yl)-4-pyridin-2-yl-4,5-dihydroimidazo[1,5,4-de][1,4]benzoxazin-2-yl]pyrrolidin-3-yl}carbamate], the IC50 (Homo sapiens, 72 h) was under 1000 nM.
